19 compounds from patent US9000159B2 (Glenmark Pharmaceuticals, S.A., priority 2009, dated 2015) can be followed below.

Broadly, the inhibition is the change of the read-out against control, counted positive when it falls. As usually defined, the IC50 is the midpoint of a concentration-inhibition curve.

This assay concerns the target T1, Human TRPA1 (Homo sapiens, UniProt O75762).
T1 construct: expressed in transfected cells; host or cells: CHO cells
Put plainly: 45Calcium uptake assay: inhibition of AITC induced cellular uptake of radioactive calcium. In kind it is cell-based. The conditions noted are these: AITC (30 μM) induced 45Ca uptake, Human TRPA1 expressing CHO cells; for inhibition at 1 µM: 1.0 μM test compound, read-out: Percentage inhibition at 1.0 μM; for inhibition at 10 µM: 10.0 μM test compound, read-out: Percentage inhibition at 10.0 μM; for IC50: read-out: Human IC50 value (range). From the text:
The illustrative examples of the present invention are screened for TRPA1 activity according to a modified procedure described in (a) Tóth, A. et al., Life Sciences, 2003, 73, 487-498. (b) McNamara C, R. et al., Proc. Natl. Acad. Sci. U.S.A., 2007, 104, 13525-13530. The screening of the compounds can be carried out by other methods and procedures known to persons skilled in the art.
Screening for TRPA1 Antagonist Using the ^45Calcium Uptake Assay
The inhibition of TRPA1 receptor activation was measured as inhibition of allyl isothiocyanate (AITC) induced cellular uptake of radioactive calcium. Test compounds were dissolved in DMSO to prepare 10 mM stock solution and then diluted using plain medium with 0.1% BSA and 1.8 mM CaCl2 to get desired concentration. Final concentration of DMSO in the reaction was 0.5% (v/v). Human TRPA1 expressing CHO cells were grown in F-12 DMEM medium with 10% FBS, 1% penicillin-streptomycin solution, 400 μg/ml of G-418. Cells were seeded 24 h prior to the assay in 96 well plates so as to get ˜50,000 cells per well on the day of experiment. Cells were treated with test compounds for 10 min followed by addition of AITC at a final concentration of 30 μM and 5 μCi/ml ^45Ca^+2 for 3 min. Cells were washed and lysed using buffer containing 1% Triton X-100, 0.1% deoxycholate and 0.1% SDS. Radioactivity in the lysate was measured in Packard Top count after addition of liquid scintillant. Concentration response curves were plotted as a % of maximal response obtained in the absence of test antagonist. IC50 value was calculated from concentration response curve by nonlinear regression analysis using GraphPad PRISM software.

T1 sequence (O75762 whole entry): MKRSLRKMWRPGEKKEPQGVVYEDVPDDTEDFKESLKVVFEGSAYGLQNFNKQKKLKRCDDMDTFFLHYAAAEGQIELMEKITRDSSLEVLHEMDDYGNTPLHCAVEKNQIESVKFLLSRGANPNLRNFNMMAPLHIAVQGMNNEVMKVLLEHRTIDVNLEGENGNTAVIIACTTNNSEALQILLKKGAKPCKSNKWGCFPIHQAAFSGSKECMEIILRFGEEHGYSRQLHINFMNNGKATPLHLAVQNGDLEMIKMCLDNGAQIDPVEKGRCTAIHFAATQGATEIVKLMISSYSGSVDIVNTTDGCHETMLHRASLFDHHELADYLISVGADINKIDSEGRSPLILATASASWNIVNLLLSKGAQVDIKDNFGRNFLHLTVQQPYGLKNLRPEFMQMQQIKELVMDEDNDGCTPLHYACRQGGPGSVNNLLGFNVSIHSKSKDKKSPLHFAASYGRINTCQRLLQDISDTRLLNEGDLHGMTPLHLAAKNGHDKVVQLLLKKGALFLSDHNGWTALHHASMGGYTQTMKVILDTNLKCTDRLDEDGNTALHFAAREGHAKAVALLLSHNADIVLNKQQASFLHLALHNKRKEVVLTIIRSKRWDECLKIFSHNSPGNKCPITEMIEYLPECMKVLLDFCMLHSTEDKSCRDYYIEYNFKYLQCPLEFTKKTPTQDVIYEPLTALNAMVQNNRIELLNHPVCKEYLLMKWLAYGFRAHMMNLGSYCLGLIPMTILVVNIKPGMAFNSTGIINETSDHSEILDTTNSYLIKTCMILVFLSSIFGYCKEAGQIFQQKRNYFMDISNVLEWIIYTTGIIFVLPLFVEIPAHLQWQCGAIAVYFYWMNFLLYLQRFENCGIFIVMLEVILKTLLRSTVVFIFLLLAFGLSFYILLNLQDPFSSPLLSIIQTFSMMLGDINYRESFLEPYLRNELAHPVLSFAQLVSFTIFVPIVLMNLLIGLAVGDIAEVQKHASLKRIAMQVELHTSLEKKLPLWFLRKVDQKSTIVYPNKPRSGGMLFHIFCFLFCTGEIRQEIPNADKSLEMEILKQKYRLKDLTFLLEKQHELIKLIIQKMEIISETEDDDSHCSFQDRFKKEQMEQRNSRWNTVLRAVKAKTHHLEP

Regarding `Cn1nc2c(c1CC(=O)Nc1nc(-c3ccc(C(F)(F)F)c(F)c3)cs1)c(=O)n(C)c(=O)n2C` [Example 54, N-[4-(3-Fluoro-4-trifluoromethylphenyl)-1,3-thiazol-2-yl]-2-(2,5,7-trimethyl-4,6-dioxo-4,5,6,7-tetrahydro-2H-pyrazolo[3,4-d]pyrimidin-3-yl)acetamide], the inhibition at 1 µM was found to be 97.7%, the inhibition at 10 µM is 99.6% and the IC50 is less than 0.05 µM.
Taken in the same sequence, the figures for `Cc1nn(CC(=O)Nc2nc(-c3cc(Cl)c(OCC(C)(C)C)c(Cl)c3)cs2)c2c(=O)n(C)c(=O)n(C)c12` [Example 83, N-[4-(3,5-Dichloro-4-(2,2-dimethylpropoxy)phenyl)-1,3-thiazol-2-yl]-2-(3,4,6-trimethyl-5,7-dioxo-4,5,6,7-tetrahydro-1H-pyrazolo[4,3-d]pyrimidin-1-yl)acetamide] were 75.6%, 95% and less than 0.05 µM.
Taken in the same sequence, the figures for `Cn1c(=O)c2c(ccn2CC(=O)Nc2nc(-c3ccc(C(F)(F)F)c(F)c3)cs2)n(C)c1=O` [Example 3, 2-(1,3-Dimethyl-2,4-dioxo-1,2,3,4-tetrahydro-5H-pyrrolo[3,2-d]pyrimidin-5-yl)-N-{4-[3-fluoro-4-(trifluoromethyl)phenyl]-1,3-thiazol-2-yl}acetamide] were 94.4%, 98.8% and less than 0.05 µM.
Taken in the same sequence, the figures for `Cn1c(=O)c2c(ccn2CC(=O)Nc2nc(-c3cc(F)c(OCC(F)(F)F)c(Cl)c3)cs2)n(C)c1=O` [Example 16, N-{4-[3-Chloro-5-fluoro-4-(2,2,2-trifluoroethoxy)phenyl]-1,3-thiazol-2-yl}-2-(1,3-dimethyl-2,4-dioxo-1,2,3,4-tetrahydro-5H-pyrrolo[3,2-d]pyrimidin-5-yl)acetamide] were 95%, 97.1% and less than 0.05 µM.
Regarding `Cn1nc2c(c1CC(=O)Nc1nc(-c3cccc(OC(F)(F)F)c3)cs1)c(=O)n(C)c(=O)n2C` [Example 49, N-{4-[3-(Trifluoromethoxy)phenyl]-1,3-thiazol-2-yl}-2-(2,5,7-trimethyl-4,6-dioxo-4,5,6,7-tetrahydro-2H-pyrazolo[3,4-d]pyrimidin-3-yl)acetamide], the inhibition at 1 µM came to 52.3% and the inhibition at 10 µM worked out at 88.5%.
For the compound `Cn1c(=O)c2c(ccn2CC(=O)Nc2nc(-c3ccc(Cl)c(C(F)(F)F)c3)cs2)n(C)c1=O` [Example 4, 2-(1,3-Dimethyl-2,4-dioxo-1,2,3,4-tetrahydro-5H-pyrrolo[3,2-d]pyrimidin-5-yl)-N-{4-[4-chloro-3-(trifluoromethyl)phenyl]-1,3-thiazol-2-yl}acetamide], the inhibition at 1 µM was determined as 34.4% and the inhibition at 10 µM worked out at 89.8%.
In the case of `Cn1nc2c(c1CC(=O)Nc1nc(-c3ccc(Cl)cc3)cs1)c(=O)n(C)c(=O)n2C` [Example 46, N-[4-(4-Chlorophenyl)-1,3-thiazol-2-yl]-2-(2,5,7-trimethyl-4,6-dioxo-4,5,6,7-tetrahydro-2H-pyrazolo[3,4-d]pyrimidin-3-yl)acetamide], the inhibition at 1 µM came out at 89.3%, the inhibition at 10 µM is 96.6% and the IC50 was greater than 0.1 µM.
For `Cn1c(=O)c2c(ccn2CC(=O)Nc2nc(-c3cc(F)c(OC(F)F)c(F)c3)cs2)n(C)c1=O` [Example 10, N-{4-[4-(Difluoromethoxy)-3,5-difluorophenyl]-1,3-thiazol-2-yl}-2-(1,3-dimethyl-2,4-dioxo-1,2,3,4-tetrahydro-5H-pyrrolo[3,2-d]pyrimidin-5-yl)acetamide] the same measures were 91%, 95.3% and 0.05 to 0.1 µM.
Taken in the same sequence, the figures for `Cc1cc2c(c(=O)n(C)c(=O)n2C)n1CC(=O)Nc1nc(-c2ccc(OCC(C)(C)C)c(Cl)c2)cs1` [Example 32, N-{4-[3-Chloro-4-(2,2-dimethylpropoxy)phenyl]-1,3-thiazol-2-yl}-2-(1,3,6-trimethyl-2,4-dioxo-1,2,3,4-tetrahydro-5H-pyrrolo[3,2-d]pyrimidin-5-yl)acetamide] were 92.8%, 96.3% and less than 0.05 µM.
With `Cn1nc2c(c1CC(=O)Nc1nc(-c3cc(C(F)(F)F)ccc3F)cs1)c(=O)n(C)c(=O)n2C` [Example 57, N-{4-[2-Fluoro-5-(trifluoromethyl)phenyl]-1,3-thiazol-2-yl}-2-(2,5,7-trimethyl-4,6-dioxo-4,5,6,7-tetrahydro-2H-pyrazolo[3,4-d]pyrimidin-3-yl)acetamide], the inhibition at 1 µM was 43% and the inhibition at 10 µM is 49.8%.
In the case of `Cc1nn(CC(=O)Nc2nc(-c3cc(F)c(OCC(C)(C)C)c(F)c3)cs2)c2c(=O)n(C)c(=O)n(C)c12` [Example 82, N-[4-(3,5-Difluoro-4-(2,2-dimethylpropoxy)phenyl)-1,3-thiazol-2-yl]-2-(3,4,6-trimethyl-5,7-dioxo-4,5,6,7-tetrahydro-1H-pyrazolo[4,3-d]pyrimidin-1-yl)acetamide], the inhibition at 1 µM worked out at 92.8%, the inhibition at 10 µM amounted to 99% and the IC50 lay within 0.05 to 0.1 µM.
As for `Cn1c(=O)c2c(c(Br)cn2CC(=O)Nc2nc(-c3ccc(C(F)(F)F)c(F)c3)cs2)n(C)c1=O` [Example 37, 2-(7-Bromo-1,3-dimethyl-2,4-dioxo-1,2,3,4-tetrahydro-5H-pyrrolo[3,2-d]pyrimidin-5-yl)-N-{4-[3-fluoro-4-(trifluoromethyl)phenyl]-1,3-thiazol-2-yl}acetamide], the inhibition at 1 µM turned out to be 52.9% and the inhibition at 10 µM was 95.4%.
For `Cn1c(=O)c2c(ccn2CC(=O)Nc2nc(-c3cc(Cl)c(OCC4CCC4)c(Cl)c3)cs2)n(C)c1=O` [Example 19, 2-(1,3-Dimethyl-2,4-dioxo-1,2,3,4-tetrahydro-5H-pyrrolo[3,2-d]pyrimidin-5-yl)-N-{4-[4-(cyclobutylmethoxy)-3,5-dichlorophenyl]-1,3-thiazol-2-yl}acetamide] the same measures were 72.1% and 76.9%.
Turning to `CC(C)Cc1ccc(-c2csc(NC(=O)Cc3c4c(=O)n(C)c(=O)n(C)c4nn3C)n2)cc1` [Example 45, N-[4-(4-Isobutylphenyl)-1,3-thiazol-2-yl]-2-(2,5,7-trimethyl-4,6-dioxo-4,5,6,7-tetrahydro-2H-pyrazolo[3,4-d]pyrimidin-3-yl)acetamide], the inhibition at 1 µM is 93.5%, the inhibition at 10 µM was 98.9% and the IC50 is 0.05 to 0.1 µM.
For `Cn1nc2c(c1CC(=O)Nc1nc(-c3ccc(C(F)(F)F)cc3)cs1)c(=O)n(C)c(=O)n2C` [Example 47, N-{4-[4-(Trifluoromethyl)phenyl]-1,3-thiazol-2-yl}-2-(2,5,7-trimethyl-4,6-dioxo-4,5,6,7-tetrahydro-2H-pyrazolo[3,4-d]pyrimidin-3-yl)acetamide] the same measures were 99%, 99.5% and less than 0.05 µM.
As for `Cn1c(=O)c2c(cnn2CC(=O)Nc2nc(-c3ccc(Cl)cc3)cs2)n(C)c1=O` [Example 67, N-[4-(4-Chlorophenyl)-1,3-thiazol-2-yl]-2-(4,6-dimethyl-5,7-dioxo-4,5,6,7-tetrahydro-1H-pyrazolo[4,3-d]pyrimidin-1-yl)acetamide], the inhibition at 1 µM is 57.6% and the inhibition at 10 µM stood at 98.4%.
In the case of `CC(C)COc1c(F)cc(-c2csc(NC(=O)Cn3ccc4c3c(=O)n(C)c(=O)n4C)n2)cc1F` [Example 6, 2-(1,3-Dimethyl-2,4-dioxo-1,2,3,4-tetrahydro-5H-pyrrolo[3,2-d]pyrimidin-5-yl)-N-{4-[4-(2-methylpropoxy)-3,5-difluorophenyl]-1,3-thiazol-2-yl}acetamide], the inhibition at 1 µM stood at 42.4% and the inhibition at 10 µM was found to be 52.8%.
For the compound `Cn1c(=O)c2c(CC(=O)Nc3nc(-c4ccc(C(F)(F)F)c(F)c4)cs3)cn(C)c2n(C)c1=O` [Example 41, N-{4-[3-Fluoro-4-(trifluoromethyl)phenyl]-1,3-thiazol-2-yl}-2-(1,3,7-trimethyl-2,4-dioxo-2,3,4,7-tetrahydro-1H-pyrrolo[2,3-d]pyrimidin-5-yl)acetamide], the inhibition at 1 µM amounted to 38% and the inhibition at 10 µM was 86.5%.
For the compound `CC(C)CCOc1c(F)cc(-c2csc(NC(=O)Cn3ncc4c3c(=O)n(C)c(=O)n4C)n2)cc1F` [Example 76, N-{4-[3,5-Difluoro-4-(3-methylbutoxy)phenyl]-1,3-thiazol-2-yl}-2-(4,6-dimethyl-5,7-dioxo-4,5,6,7-tetrahydro-1H-pyrazolo[4,3-d]pyrimidin-1-yl)acetamide], the inhibition at 1 µM came to 84.3%, the inhibition at 10 µM came out at 95.6% and the IC50 is greater than 0.1 µM.
